Measured values: patent EP1039908B1, “MOLECULAR DISPERSION COMPOSITION WITH ENHANCED BIOAVAILABILITY” (SCHERING CORPORATION, priority 1997, dated 1999)

Assay: Bioavailability assay: oral single dose to monkeys, plasma analysed by HPLC-UV, AUC ratio versus amorphous suspension control
Format: in vivo, male cynomolgus monkeys
Settings: for bioavailability: qualitative statement, solid dosage form development with conventional excipients
Procedure: The formulation to be tested was administered orally to male cynomolgus monkeys in a single dose (PO, single). The number of monkeys for each test is indicated by the letter "N" followed by an equal sign and a number. Thus, "(N=6)" means the formulation was administered to six monkeys. The total amount of the compound of Formula I administered was 100 or 200 mg given as one capsule or tablet containing 100 or 200 mg each. The administered dose (tablet, capsule or control suspension) was slowly washed down with 10 mL of water. Blood samples were taken at 15, 30 minutes, 1 hour, 2 hours, 4 hours. 6 hours, 8 hours, 12 hours, 24 hours, and 48 hours in heparinized syringes. Plasma for analysis was obtained by centrifugation at 4°C. Plasma samples (one per time point) were split and stored at -20°C until assayed as described below.
The monkeys to be tested were fed two biscuits in the morning on the day of drug administration.
Monkeys that were fasted were not given any food overnight before drug administration and were fed normally after the 4-hour time point after drug administration.
Samples of monkey plasma were collected at selected time intervals. The plasma was analyzed by a high pressure liquid chromatograph (HPLC) procedure with ultraviolet detection. AUC (area under the plasma concentration-time curve, […]) values were calculated using standard procedures to determine the relative bioavailability of the compound in the tested formulations. The larger the AUC value, the greater the bioavailability.
A suspension of the compound of Formula I was used as a control. The control was made by suspending sufficient compound of Formula I in methyl cellulose solution to provide a dose of 30 mg/kg of body weight of monkey. The 0.4 % methyl cellulose solution was made by adding 4 grams of methyl cellulose to one liter of distilled water and heating at about 80°C with stirring for about 1 1/2 hours.
The results of the bioavailability assay are given in terms of percent-relative bioavailability (AUC ratio) compared to amorphous suspension of Compound I in 0.4 methyl cellulose solution.

[1] = suspension, PO single dose, fed monkeys
[2] = suspension, PO single dose, feeding state not printed in the sentence (fasted monkeys implied by b156)

| SMILES | bioavailability (listed as compound of Formula I) | bioavailability | relative bioavailability, % of the AUC of suspensions containing the amorphous form of compound I [1] | relative bioavailability, % of the C max of suspensions containing the amorphous form of compound I [1] | relative bioavailability, % of the AUC of the suspensions containing the amorphous form of compound I [2] | relative bioavailability, % of the Cmax of the suspensions containing the amorphous form of compound I [2] |
| --- | --- | --- | --- | --- | --- | --- |
| NC(=O)N1CCC(CC(=O)N2CCC(C3c4ncc(Br)cc4CCc4cc(Cl)cc(Br)c43)CC2)CC1 (single isomer, unassigned; (+)) [Compound I, (+)-4-[4-(8-chloro-3,10-dibromo-6,11-dihydro-5H-benzo [5,6cyclohepta[1,2-b]pyridin-11-yl)-1-piperidinyl]-2-oxoethyl]-1-piperidinecarboxamide] | extremely poor | – | – | – | – | – |
| NC(=O)N1CCC(CC(=O)N2CCC(C3c4ncc(Br)cc4CCc4cc(Cl)cc(Br)c43)CC2)CC1 (single isomer, unassigned; (+)) [crystalline compound I, (+)-4-[4-(8-chloro-3,10-dibromo-6,11-dihydro-5H-benzo [5,6cyclohepta[1,2-b]pyridin-11-yl)-1-piperidinyl]-2-oxoethyl]-1-piperidinecarboxamide] | – | very poor | 3.6% | 5.2% | 1.3% | 2.7% |
